From publication PMC7934687 (Vaccine, 2021)
Like-named read-outs stand apart in the source and are kept apart here.

Legend:
Assay type in all cases: binding
HLA-A*02:01 = HLA-A*02:01 (Homo sapiens, UniProt P04439, D140Y/D185E/D98H/E176V/E277Q/G131W/G231S/I119V/I121R/I166T/I218V/L300P/L318F/N151K/N90K/P208A/P217A/Q86G/Q94H/R138H/R169H/T345S)
HLA-DRB1*01:01 = HLA-DRB1*01:01 (Homo sapiens, UniProt P01903+P01911, A100R/D57E/F55L/F60I/F76Y/I96L/L162R/M171V/P40L/Q125E/R42F/V115G/Y59C); conditions: reference peptide, short 15 amino acid form
HLA-DRB1*15:01 = HLA-DRB1*15:01 (Homo sapiens, UniProt P01903+P01911); conditions: reference peptide, short 15 amino acid form

Sequence: ISDEFSSNV
- Practical Exchange rate (HLA-A*02:01; […], exiting peptide removed): 93.5%

Sequence: PVSKMRMATPLLMQA [CLIP]
- interaction with recombinant HLA-DRB1*01:01 (HLA-DRB1*01:01): interacts strongly
- interaction with recombinant HLA-DRB1*15:01 (HLA-DRB1*15:01): interacts strongly

Sequence: SVLLFLAFV
- Practical Exchange rate (HLA-A*02:01): 57.5%

Sequence: YLYALVYFL
- Practical Exchange rate (HLA-A*02:01; […], exiting peptide removed): 85%
